Series [1] relates to Hela-RIPK3 cells. The settings on record: Mandal et al. 2014, one cell under both toxicity columns; cited from earlier work.
Series [2] deals with LPS/IDN-treated murine RAW264.7 macrophages. Nature of the series: Protection from necroptosis in LPS/IDN-treated RAW264.7 macrophages (CellTiter-Glo). It counts as cell-based. Background: ATP-based viability assays read luminescence as a measure of living cells.
Method: (§2) IC50/LD50 values were determined for inhibition of recombinant RIPK3, inhibition of necroptosis in LPS/IDN-treated murine RAW264.7 macrophages and TNF/IDN-treated human Hela cells expressing RIPK3, RIPK3 binding by the inhibitors in live cells (NanoBRET assay), and induction of RIPK3-dependent apoptosis (i.e., on-target toxicity). Assays were performed using ADPGlo (kinase assay), CellTiter-Glo (viability), and NanoBRET (target engagement) assays.
(§3) After incubation with drugs, 15 μL of CellTiter-Glo reagent is added to the wells and incubated for 10 min Luminescence signals are determined using appropriate luminescence plate-reader (typical integration time 0.3 sec).
Series [3] has as its system TNF/IDN-treated human Hela cells expressing RIPK3. Nature of the series: Protection from necroptosis in TNF/IDN-treated Hela-RIPK3 cells (CellTiter-Glo). It counts as cell-based.
Method: as §2, §3
Series [4] relates to RIPK3 and MLKL phosphorylation. Put plainly: RIPK3 and MLKL phosphorylation in RAW264.7 macrophages (Western blot, FIG. 31). It is filed as cell-based. The settings on record: LPS 10 ng/ml + IDN6556 20 μM. As to the method: Necroptosis was induced by the combination of LPS (10 ng/ml) and pan-caspase inhibitor IDN6556 (20 μM). Note that LPS is a TLR4 ligand that, like TNF, can activate RIPK3 (and necroptosis) in the presence of a caspase inhibitor. The asterisk indicates a non-specific band sometimes see in pMLKL immunoblots. Samples are subjected to SDS-PAGE gele electrophoresis and Western blotting using RIPK3, phospho-Thr231/Ser232-RIPK3, MLKL and phospho-Ser345-MLKL antibodies (Abcam).

The target of series [5] is T1, RIPK3 (Homo sapiens, UniProt Q9Y572). Put plainly: Inhibition of recombinant RIPK3 (ADP-Glo kinase assay). It is filed as biochemical. The settings on record: recombinant RIPK3, ADPGlo; read-out: Inhibition of RIPK3, RIPK3 protein IC50.
T1 sequence (Q9Y572 whole entry, species assumed): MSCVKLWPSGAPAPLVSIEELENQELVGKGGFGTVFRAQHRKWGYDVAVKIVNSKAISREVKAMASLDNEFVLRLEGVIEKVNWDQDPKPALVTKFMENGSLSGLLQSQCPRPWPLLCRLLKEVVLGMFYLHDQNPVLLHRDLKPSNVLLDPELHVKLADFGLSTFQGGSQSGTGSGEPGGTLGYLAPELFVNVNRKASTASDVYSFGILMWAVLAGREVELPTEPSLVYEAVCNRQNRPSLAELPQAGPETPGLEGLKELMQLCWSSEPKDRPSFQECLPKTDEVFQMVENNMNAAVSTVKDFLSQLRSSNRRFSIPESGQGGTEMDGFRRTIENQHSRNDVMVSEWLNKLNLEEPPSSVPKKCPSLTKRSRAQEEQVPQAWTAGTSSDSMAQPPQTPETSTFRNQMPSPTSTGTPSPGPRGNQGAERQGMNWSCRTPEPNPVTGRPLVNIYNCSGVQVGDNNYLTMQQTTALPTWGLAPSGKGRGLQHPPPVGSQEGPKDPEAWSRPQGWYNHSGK
Method: as §2
(§4) For ADP-Glo assays, recombinant RIPK3 protein (20 ng per reaction) is diluted in the reaction buffer consisting of 50 mM HEPES, pH 7.5, 50 mM NaCl, 30 mM MgCl2, 1 mM DTT, 0.05% bovine serum albumin (BSA), 0.02% CHAPS. Diluted protein is added to low volume white 384 well plates (2 μL/well). […] Reactions are initiated by the addition of 2 μL of 100 μM ATP in the reaction buffer. Plates are sealed with plastic coverslips and incubated at room temperature for 4 h. Reactions are stopped by the addition of 5 μL of ADP-Glo reagent (Promega) and ADP generation reaction is performed for 40 mM at room temperature Luminescence signal is generated by the addition of 10 μL of Kinase detection reagent (Promega) for 30 mM at room temperature Luminescence signals are determined using appropriate luminescence plate-reader (typical integration time 0.3-1 sec). To calculate percent inhibition, average background signal is subtracted from test well and maximal signal wells. Inhibition, %=(1−(test signal/maximal signal))*100. The percent inhibition at a specified concentration is determined or IC50 values are calculated based on a dose range of inhibitor concentrations using non-linear regression in GraphPad Prism software. […] After incubation with drugs, 15 μL of CellTiter-Glo reagent is added to the wells and incubated for 10 min Luminescence signals are determined using appropriate luminescence plate-reader (typical integration time 0.3 sec). To calculate percent viability, Viability, %=(1−(test signal/maximal viability in the untreated wells))*100.
For series [6], the system named is RAW264.7 cells.
Method: as §2, §4
Series [7] addresses T1, RIPK3. Nature of the series: RIPK3 binding in live HEK cells (NanoBRET target engagement). Further details: expressed in transfected cells; host or cells: HEK cells. (In general: BRET reads energy transfer from a luciferase to a nearby fluorophore.)
Method: as §2
In series [8] the test system is NOD2 cellular signaling. Nature of the series: NOD2 signaling assay in HEK-Blue cells (NFkB-SEAP reporter). It is filed as cell-based. The settings on record: Homo sapiens, L18-MDP stimulated, read-out: EC50 HEK Blue (μM) RIPK2. As to the method:
HEK-Blue cells expressing human NOD2 and NFkB-SAEP reporter (Invivogen) are seeded into 96 well clear plates at 7.5×10^3 cells per well in 100 μL of DMEM media supplemented with 10% FBS and 1% antibiotic-antimycotic mix. Cells are allowed to attach for 48 h in 5% CO2 tissue culture incubator at 37° C. On the morning of the experiment, media in the wells is replaced with 100 μL of HEK-Blue detection media (Invivogen). Cells are treated with the inhibitors, diluted in DMSO (0.5 μL per well) for […] in 5% CO2 tissue culture incubator at 37° C. After that, cells are stimulated by the addition of 1 ng/well L18-MDP (Invivogen). Cells are incubated in 5% CO2 tissue culture incubator at 37° C. for 8 h and absorbance, corresponding to the SEAP in the media, is determined in Wallac3V plate reader (Perkin Elmer). Inhibition, %=(1−((sample signal-unstimulated and DMSO treated cells)/(L18−MDP stimulated and DMSO treated cells−unstimulated and DMSO treated cells)))*100.
(§1) Prepared compounds were evaluated for their ability to inhibit RIPK2 and ALK2 enzyme activities and NOD2 cellular signaling using the methods described above.

Series [9] has as its target T2, human ALK2 (Homo sapiens, UniProt Q04771).
T2 sequence (Q04771 21-509): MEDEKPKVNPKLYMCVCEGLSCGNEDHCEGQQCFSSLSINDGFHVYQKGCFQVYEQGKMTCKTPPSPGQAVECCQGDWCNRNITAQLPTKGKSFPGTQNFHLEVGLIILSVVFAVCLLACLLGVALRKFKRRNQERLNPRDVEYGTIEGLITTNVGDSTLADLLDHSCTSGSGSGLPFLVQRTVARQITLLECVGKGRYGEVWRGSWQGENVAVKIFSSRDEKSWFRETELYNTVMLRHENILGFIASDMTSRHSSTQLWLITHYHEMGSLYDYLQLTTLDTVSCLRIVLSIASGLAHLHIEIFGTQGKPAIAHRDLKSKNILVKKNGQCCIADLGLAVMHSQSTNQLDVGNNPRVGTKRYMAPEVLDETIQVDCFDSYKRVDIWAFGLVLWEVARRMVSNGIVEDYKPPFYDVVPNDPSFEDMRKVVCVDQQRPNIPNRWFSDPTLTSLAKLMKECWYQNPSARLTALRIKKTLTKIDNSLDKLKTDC
Put plainly: ALK2 enzyme assay (33P-casein). It counts as biochemical. The settings on record: 10 μM ATP. The method, then:
Enzyme inhibitory activity was evaluated in a standard kinase enzyme assay by incubating human ALK2 with the protein substrate casein (1 mg/mL) and γ-^33ATP (10 μM) in the presence of various concentrations of test compounds (10 nM 100 μM). After 30 min the amount of ^33P-casein was determined.
as §1

The test system of series [10] is Hela-RIPK3 cells.
Method: as §2
For ADP-Glo assays, recombinant RIPK3 protein (20 ng per reaction) is diluted in the reaction buffer consisting of 50 mM HEPES, pH 7.5, 50 mM NaCl, 30 mM MgCl2, 1 mM DTT, 0.05% bovine serum albumin (BSA), 0.02% CHAPS. Diluted protein is added to low volume white 384 well plates (2 μL/well). […] Reactions are stopped by the addition of 5 μL of ADP-Glo reagent (Promega) and ADP generation reaction is performed for 40 mM at room temperature Luminescence signal is generated by the addition of 10 μL of Kinase detection reagent (Promega) for 30 mM at room temperature Luminescence signals are determined using appropriate luminescence plate-reader (typical integration time 0.3-1 sec). […] The percent inhibition at a specified concentration is determined or IC50 values are calculated based on a dose range of inhibitor concentrations using non-linear regression in GraphPad Prism software. […]
The mark [11] stands for this setting: Mus musculus, LPS/IDN-treated RAW264.7 cells, read-out: Protection from necroptosis, RAW264.7 cells IC50.

The structures appear in SMILES notation. pIC50: −log10 of the molar value. Like-named read-outs stand apart in the source and are kept apart here. Marks after values point to notes of the source that are not given here. Where only a bound is given, the exact number is not on record here.

A word on the pIC50: it is the negative decadic logarithm of the IC50, by convention in mol/L. Turning to `CC(C)S(=O)(=O)c1ccc2nccc(Nc3ccc4scnc4c3)c2c1` [GSK′872, reference compound], in [1], the “Toxicity LD50 (published value)” value is reported as ~10* μM. Also, the negative logarithm of the IC50 (pIC50) in series [2] (LPS/IDN-treated RAW264.7 cells, read-out: Protection from necroptosis, RAW264.7 cells IC50) was 5.89; in series [3], 5.49. Besides, in [4], the “Block of RIPK3 and MLKL phosphorylation” value is “block RIPK3 and MLKL phosphorylation”.

Consider `CN1CCN(c2cccc(Nc3cc4c(cn3)cc(-c3cccc(O)c3)c(=O)n4C)c2)CC1` [compound 38], for which the pIC50 is 8.00 in series [5], 7.70 in series [2] (setting [11]) and 7.70 in [7]. In addition, the “Toxicity, RAW264.7 cells LD50” value in [6] was above 10 µM.

On to `CCN(CC)CCOc1ccc(Nc2ncc3cc(-c4c(Cl)cccc4Cl)c(=O)n(CC(C)C)c3n2)cc1` [compound 10], for which the pIC50 in series [5] is 7.10.

In general, EC50 refers to the concentration needed to bring the measured effect to its halfway point. The term IC50 denotes the concentration at which inhibition is half-maximal. Take `CN1CCN(c2cccc(Nc3cc4c(cn3)cc(-c3ccccc3Cl)c(=O)n4C)c2)CC1` [UH15-37, 3-(2-chlorophenyl)-1-methyl-7-((3-(4-methylpiperazin-1-yl)phenyl)amino)-1,6-naphthyridin-2(1H)-one]: the EC50 in series [8] was 0.05 µM. The IC50 in series [9] was 32300 nM.

On to `Cn1c(=O)c(-c2ccccc2Cl)cc2cnc(Nc3cccc(N4CCS(=O)(=O)CC4)c3)cc21` [UH15-28, 3-(2-chlorophenyl)-7-((3-(1,1-dioxidothiomorpholino)phenyl)amino)-1-methyl-1,6-naphthyridin-2(1H)-one], for which, in series [8], the EC50 came to 0.07 µM.

In the case of `CCN(CC)CCOc1ccc(Nc2ncc3cc(-c4c(Cl)cccc4Cl)c(=O)n(CCOC)c3n2)cc1` [compound 6], the pIC50 in [5] and in series [7] was 7.70 each time.

As for `CCN(CC)CCOc1ccc(Nc2ncc3cc(-c4ccccc4)c(=O)n(CC)c3n2)cc1` [compound 4], the pIC50 in series [5] is 6.52; in [2] (Mus musculus, RAW264.7, read-out: Protection from necroptosis, RAW264.7 cells IC50) it was 6.74. Further, in series [6], the “Toxicity, RAW264.7 cells LD50” value stood at 5.2 µM.

Consider `Cc1ccc(-c2cc3cnc(Nc4cccc(S(C)(=O)=O)c4)nc3n(C)c2=O)c(Cl)c1` [compound 20], for which the values for the pIC50 in [5] and in series [7] were 6.55 and 6.02, respectively.

Take `CN1CCN(c2cccc(Nc3cc4c(cn3)cc(-c3ccccc3Cl)c(=O)n4C)c2)CC1` [compound 37]: the pIC50 in [5] was 7.30; in series [2] (setting [11]) it was 6.60; in series [3] (Homo sapiens), 7.22; in [7], 7.10. The “Toxicity, Hela-RIPK3 cells LD50” value in series [10] was above 10 µM. For the same compound, the “Toxicity, RAW264.7 cells LD50” value in [6] was above 10 µM.

Source of the values: US12516055B2, “Protein kinase inhibitors and uses thereof for the treatment of diseases and conditions” (University of Houston System, priority 2019, dated 2026).
